Data as given in ChEMBL document CHEMBL1144944, “Discovery of an orally efficacious inhibitor of coagulation factor Xa which incorporates a neutral P1 ligand” (J Med Chem, 2003).

Assays:
Caco-2 = assay: Compound was tested in vitro for its percent absorption towards CaCo-2 cell monolayer; assay type: functional, cell-based; settings: Homo sapiens
Coagulation factor X = Coagulation factor X (Homo sapiens, UniProt P00742); assay: In vitro binding affinity for human Coagulation factor X
Prothrombin = Prothrombin (Homo sapiens, UniProt P00734); assay: Binding affinity towards thrombin
Serine protease 1 = Serine protease 1 (Homo sapiens, UniProt P07477); assay: Binding affinity towards trypsin
[1] = Oral bioavailability in dog (dose 10 mg/kg); assay type: ADME, organism-based, Canis lupus familiaris; settings: in vivo
[2] = Half life period after peroral administration (10 mpk) was determined in dog; assay type: ADME, organism-based, Canis lupus familiaris; settings: in vivo, po, 10 mg/kg
Canis familiaris = species on record: Canis familiaris; assay: Concentration of inhibitor required to double the activated partial thromboplastin time in dog was determined; assay type: functional, organism-based; settings: Canis lupus familiaris
Homo sapiens = species on record: Homo sapiens; assay: Concentration of inhibitor required to double the activated partial thromboplastin time in human was determined; assay type: functional, organism-based
[3] = Maximum plasma concentration after peroral administration (10 mpk) was determined in dog; assay type: ADME, organism-based, Canis lupus familiaris; design: route oral; settings: po, 10 mg/kg
[4] = Ionization constant is the negative logarithm of the equilibrium coefficient of the neutral and charged forms of the compound; assay type: physicochemical
[5] = Percent oral bioavailability after peroral administration (5 mpk) was determined in dog; assay type: ADME, organism-based, Canis lupus familiaris; settings: in vivo, 5 mg/kg
[6] = Half life period after peroral administration (5 mpk) was determined in dog; assay type: ADME, organism-based, Canis lupus familiaris; settings: in vivo, po, 5 mg/kg
[7] = Maximum plasma concentration after peroral administration (5 mpk) was determined in dog; assay type: ADME, organism-based, Canis lupus familiaris; design: route oral; settings: po, 5 mg/kg
[8] = Ionization constant was determined for the compound; assay type: physicochemical

Chain of Coagulation factor X (P00742 41-179 limits assumed): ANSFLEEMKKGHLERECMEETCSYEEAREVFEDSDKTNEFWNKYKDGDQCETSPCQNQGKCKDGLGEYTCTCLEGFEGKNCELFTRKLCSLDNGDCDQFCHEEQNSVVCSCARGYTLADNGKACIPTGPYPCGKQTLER
Chain of Coagulation factor X (P00742 235-488 limits assumed): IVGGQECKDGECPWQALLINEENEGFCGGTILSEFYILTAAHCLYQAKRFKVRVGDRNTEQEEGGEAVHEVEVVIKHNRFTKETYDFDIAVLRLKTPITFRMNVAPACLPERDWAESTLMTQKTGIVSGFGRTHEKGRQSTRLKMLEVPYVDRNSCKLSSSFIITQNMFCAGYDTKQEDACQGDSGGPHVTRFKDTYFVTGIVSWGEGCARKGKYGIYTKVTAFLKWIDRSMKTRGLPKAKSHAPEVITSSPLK
Chain of Serine protease 1 (P07477 whole entry): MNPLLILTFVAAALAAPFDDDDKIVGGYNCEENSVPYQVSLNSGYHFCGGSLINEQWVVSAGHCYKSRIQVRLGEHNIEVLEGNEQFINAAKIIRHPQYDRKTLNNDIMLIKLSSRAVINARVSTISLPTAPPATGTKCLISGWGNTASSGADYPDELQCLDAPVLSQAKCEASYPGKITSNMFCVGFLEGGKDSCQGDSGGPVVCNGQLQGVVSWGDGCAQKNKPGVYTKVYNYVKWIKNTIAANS

| Ki (Coagulation factor X) [nM] | Ki (Prothrombin) [nM] | Ki (Serine protease 1) [nM] | SMILES | other results |
| --- | --- | --- | --- | --- |
| 3 | > 3900 | > 2900 | Cn1c(CN2CCN(S(=O)(=O)c3cc4ccc(Cl)cc4s3)CC2=O)cc2cnccc21 | Absorption (Caco-2): 3% |
| 18 | > 3900 | > 2900 | COC(=O)Cn1c(CN2CCN(S(=O)(=O)c3cc4ccc(Cl)cc4s3)CC2=O)cc2cnccc21 | Absorption (Caco-2): 47.6% |
| > 1200 |  |  | O=C1CN(S(=O)(=O)c2sc3ccccc3c2Cl)CCN1Cc1cc2c[nH]ccc-2n1 |  |
| > 1200 |  |  | COc1cc(/C=C/S(=O)(=O)N2CCN(Cc3cc4c[nH]ccc-4n3)C(=O)C2)sc1Cl |  |
|  | 2900 | > 2900 | O=C1CN(S(=O)(=O)c2cc3ccc(Cl)cc3s2)CCN1Cc1cc2c[nH]ccc-2n1 | bioavailability [1]: 99%; half-life [2]: 36 min; Absorption (Caco-2): 6%; Concentration (Canis familiaris): 5 µM; Concentration (Homo sapiens): 2 µM; Cmax [3]: 658 nM; pKa [4]: 8.3 |
| 38 | > 3900 | > 2900 | O=C1CN(S(=O)(=O)c2cc3ccc(Cl)cc3s2)CCN1Cc1cc2c[n+]([O-])ccc2[nH]1 |  |
| > 1200 |  |  | O=C1CN(S(=O)(=O)c2ccc(-c3ccc(Cl)cc3)cc2)CCN1Cc1cc2c[nH]ccc-2n1 |  |
|  |  |  | O=C1CN(S(=O)(=O)/C=C/c2ccc(Cl)s2)CCN1Cc1cc2c[nH]ccc-2n1 | bioavailability [5]: 97%; half-life [6]: 52 min; Cmax [7]: 1640 nM; Concentration (Canis familiaris): 2.2 µM; Concentration (Homo sapiens): 0.59 µM |
| 128 |  |  | O=C1CN(S(=O)(=O)CCc2ccc(Cl)s2)CCN1Cc1cc2c[nH]ccc-2n1 |  |
| 3 |  |  | O=C1CN(S(=O)(=O)c2cc3ccc(Br)cc3s2)CCN1Cc1cc2c[nH]ccc-2n1 |  |
| 1220 | > 3900 | > 2900 | O=C1CN(S(=O)(=O)c2cc3ccc(Cl)cc3s2)CCN1Cc1cc2cnccc2o1 | pKa [8]: 5.8 |
| 4 |  |  | O=C1CN(S(=O)(=O)c2cc3ccc(Cl)nc3s2)CCN1Cc1cc2c[nH]ccc-2n1 |  |
|  |  |  | O=C1CN(S(=O)(=O)c2cc3ccc(Cl)cc3s2)CCN1Cc1cc2cnccc2n1CCO | bioavailability [1]: 11%; half-life [2]: 139 min; Cmax [3]: 783 nM |
| 1200 |  |  | O=C1CN(S(=O)(=O)c2cc3ncc(Cl)cc3s2)CCN1Cc1cc2c[nH]ccc-2n1 |  |
|  | > 3900 | > 2900 | Nc1[nH]ccc2nc(CN3CCN(S(=O)(=O)c4cc5ccc(Cl)cc5s4)CC3=O)cc1-2 | pKa [8]: 9.3 |
| 48 |  |  | O=C1CN(S(=O)(=O)/C=C/c2ccc(Cl)cc2)CCN1Cc1cc2c[nH]ccc-2n1 |  |
| 45 | 3900 | > 2900 | O=C1CN(S(=O)(=O)c2cc3ccc(Cl)cc3s2)CCN1Cc1cc2cc[nH]cc-2n1 | pKa [8]: 8 |
| > 1200 | > 3900 | > 2900 | O=C1CN(S(=O)(=O)c2cc3ccc(Cl)cc3s2)CCN1Cc1nc2cc[nH]cc-2n1 | pKa [8]: 6.1 |
| 154 | > 3900 | > 2900 | O=C(O)Cn1c(CN2CCN(S(=O)(=O)c3cc4ccc(Cl)cc4s3)CC2=O)cc2cnccc21 |  |
| 23 |  |  | O=C1CN(S(=O)(=O)c2ccc(-c3ccc(Cl)s3)s2)CCN1Cc1cc2c[nH]ccc-2n1 |  |
| 8 | > 3900 | > 2900 | NC(=O)Cn1c(CN2CCN(S(=O)(=O)c3cc4ccc(Cl)cc4s3)CC2=O)cc2cnccc21 | Absorption (Caco-2): 7% |
| > 1200 |  |  | O=C1CN(S(=O)(=O)c2cc3cccnc3s2)CCN1Cc1cc2c[nH]ccc-2n1 |  |
| > 1200 | > 3900 | > 2900 | O=C1CN(S(=O)(=O)c2cc3ccc(Cl)cc3s2)CCN1Cc1cc2c(O)[nH]ccc-2n1 |  |
| > 1200 |  |  | O=C1CN(S(=O)(=O)c2cc3ncccc3s2)CCN1Cc1cc2c[nH]ccc-2n1 |  |
| 959 |  |  | O=C1CN(S(=O)(=O)c2cc3ccccc3s2)CCN1Cc1cc2c[nH]ccc-2n1 |  |
| > 1200 | > 3900 | > 2900 | O=C1CN(S(=O)(=O)c2cc3ccc(Cl)cc3s2)CCN1Cc1cc2[nH]cccc-2n1 | pKa [8]: 6.9 |
